Results on 49 molecules are retold here after patent US20190374526A1, “Substituted Heterocyclic Compounds as Inhibitors of PRDM9” (Merck Sharp & Dohme Corp., priority 2018, published 2019).

Structures can show the parent of a compound that is named as a salt.

The assay has as its target T1, hPRDM9 (amino acids 195-385) (Homo sapiens, UniProt Q9NQV7).
T1 construct: 1.25 nM hPRDM9 (amino acids 195-385)
T1 sequence (Q9NQV7 195-385): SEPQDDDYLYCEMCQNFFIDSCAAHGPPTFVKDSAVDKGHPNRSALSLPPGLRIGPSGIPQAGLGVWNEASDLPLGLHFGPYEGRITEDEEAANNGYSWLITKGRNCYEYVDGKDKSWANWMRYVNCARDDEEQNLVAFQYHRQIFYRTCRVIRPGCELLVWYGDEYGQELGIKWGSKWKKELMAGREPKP
Kind of assay: PRDM9 biochemical assay (radiometric, 3[H] methyl transfer from SAM to biotinylated histone H3 peptide). The conditions noted are these: 1 nM hPRDM9, 1 μM biotinylated H3(1-25)K4 peptide, 5 μM 3[H]-SAM, 55 μM un-labeled SAM, 25° C., 30 minutes. On the procedure: The PRDM9 biochemical assay was carried out using a radiometric format involving the transfer of ^3[H] methyl group from S-adenosyl methionine (SAM) to a biotinylated histone H3 peptide (H3(1-25)K4). 10 mM compounds in DMSO were diluted 20 fold in assay buffer (10 mM Tris-HCl, pH 8.5, 10 mM DTT, and 0.01% Triton X-100) before adding […] to a well in a 384 well polypropylene microplate plate and adding 8 μl of reaction mix (1.25 nM hPRDM9 (amino acids 195-385), 1.25 μM biotinylated H3 peptide in assay buffer). The ^3[H]-SAM and cold SAM stock solutions were diluted to 50 μM and 550 μM respectively in assay buffer before aliquoting 1 μl of 50 μM ^3[H]-SAM, 550 μM SAM into each well to initiate the reaction. The assay was performed at 25° C. at the final concentrations of 1 nM hPRDM9, 1 μM peptide, 5 μM ^3[H]-SAM, and 55 μM un-labeled SAM in assay buffer. The reaction was quenched after 30 minutes by adding 25 μl 7.5 M Guanidine-HCl. Quenched reactions were transferred to streptavidin coated Flashplates, diluted two fold in assay buffer, incubated for 1 hour, and read on a Perkin Elmer Topcount instrument. Compound activity was expressed relative to activity of 0.5% (v/v) DMSO treated samples and fit to a four parameter logistic equation to determine IC50 values.

As a reminder, the IC50 is the concentration that inhibits the measured activity by half. `Cc1cc(N2CCC3(CC2)CN(c2nc(-c4cc(Cl)cc(Cl)c4)no2)CCO3)ccn1` [Compound 40] yielded an IC50 of 0.0803 µM.

The molecule `COc1cc(OC)cc(-c2noc(N3CCO[C@]4(C[C@H]5CC[C@@H](C4)N5c4ccnc(C)c4)C3)n2)c1` [Compound 160] displayed an IC50 of 0.35 µM.

In the case of `Cc1cc(N2CCCC3(CCN3c3nc(-c4cc(Cl)cc(Cl)c4)no3)C2)ccn1` (stereo not shown) [Compound 231], the midpoint of inhibition, the IC50, lay at 37.3 µM.

Take `Clc1cc(Cl)cc(-c2noc(N3CCCC4(CN(c5cnccn5)C4)C3)n2)c1` [Compound 202]: inhibition was half-maximal at 2 µM (IC50).

With `Cc1cc(N2CC3(CC(NC(=O)Nc4cc(Cl)cc(Cl)c4)C3)C2)ccn1` [Compound 239, 1-(3,5-dichlorophenyl)-3-(2-(2-methylpyridin-4-yl)-2-azaspiro[3.3]heptan-6-yl)urea], the IC50 was ≥ 50 µM.

Molecule `Cc1cc(N2CC3(C2)CN(c2nc(-c4cc(Cl)cc(Cl)c4)no2)CCO3)ccn1` [Compound 119] came in with an IC50 of 0.3 µM.

For `COc1cc(OC)cc(-c2nnc(N3CCN(C)C4(CCN(c5ccnc(C)c5)CC4)C3)o2)c1` [Compound 162], the IC50 stood at 0.47 µM.

Turning to `Cc1cc(N2CC3(CCCN(c4onc(-c5cc(Cl)cc(Cl)c5)c4-c4ccc(N)cc4)C3)C2)ccn1` [Compound 123], the IC50 turned out to be 6.67 µM.

Consider `Cc1cc(NC2CCC(Nc3nc(-c4cc(Cl)cc(Cl)c4)no3)CC2)ccn1` (stereo not shown) [Compound 54], for which 26.1 µM corresponded to half-maximal inhibition (IC50).

As to `Cc1cc(N2CCC3(CCCC3Nc3nc(-c4cc(Cl)cc(Cl)c4)no3)CC2)ccn1` (stereo not shown) [Compound 33], the IC50 was determined as 1.52 µM.

On to `CCN1CCN(c2nc(-c3cc(OC)cc(OC)c3)no2)CC12CCN(c1ccnc(C)c1)CC2` [Compound 242, 3-(3,5-dimethoxyphenyl)-5-(1-ethyl-9-(2-methylpyridin-4-yl)-1,4,9-triazaspiro[5.5]undecan-4-yl)-1,2,4-oxadiazole], for which half-maximal inhibition (IC50) required 0.155 µM.

In turn, `Cc1cc(N2CCC(CNc3nc(-c4cc(Cl)cc(Cl)c4)no3)(c3ccccc3)CC2)ccn1` [Compound 67] registered an IC50 of 4.44 µM.

For `Cc1cc(N2CC3CC(Nc4nc(-c5cc(Cl)cc(Cl)c5)no4)CC3C2)ccn1` (stereo not shown) [Compound 24], the IC50 is 5.34 µM.

`COc1cc(OC)cc(-c2noc(N3CCN(CC(F)(F)F)C4(CCN(c5ccnc(C)c5)CC4)C3)n2)c1` [Compound 93, 3-(3,5-dimethoxyphenyl)-5-(9-(2-methylpyridin-4-yl)-1-(2,2,2-trifluoroethyl)-1,4,9-triazaspiro[5.5]undecan-4-yl)-1,2,4-oxadiazole] displayed an IC50 of 0.06 µM.

As for `Cc1cc(N2CCC3(CC2)CN(c2nc(-c4cc(OC(C)C)cc(OC(C)C)c4)no2)CCN3C)ccn1` [Compound 97], the IC50 is 1.37 µM.

The molecule `N#Cc1cncc(N2CC3(CCCN(c4nc(-c5cc(Cl)cc(Cl)c5)no4)C3)C2)c1` [Compound 232] showed an IC50 of 2 µM.

In turn, `Cc1cc(N2CC3(CCCN(c4cc(-c5cccc(F)c5F)no4)C3)C2)ccn1` [Compound 133, 3-(2,3-difluorophenyl)-5-(2-(2-methylpyridin-4-yl)-2,6-diazaspiro[3.5]nonan-6-yl)isoxazole] showed an IC50 of 17 µM.

Turning to `Cc1cc(NC2CCC3CN(c4nc(-c5cc(Cl)cc(Cl)c5)no4)CC3C2)ccn1` (stereo not shown) [Compound 66], the IC50 is 0.47 µM.

`COc1cccc(-c2noc(N3CCOC4(CCN(c5ccnc(C)c5)CC4)C3)n2)c1` [Compound 166]: the IC50 amounted to 0.8 µM.

As to `Cc1cc(NC[C@H]2CCN(c3nc(-c4cc(Cl)cc(Cl)c4)no3)C2)ccn1` [Compound 81], the IC50 was 13.3 µM.

Regarding `Cc1cc(N2CCC3CN(c4nc(-c5cc(Cl)cc(Cl)c5)no4)CCC32)ccn1` (stereo not shown) [Compound 71], the IC50 is 27.7 µM.

As to `COC(=O)c1cccc(-c2cc(N3CCCC4(CN(c5ccnc(C)c5)C4)C3)[nH]n2)c1` [Compound 130, methyl 3-(5-(2-(2-methylpyridin-4-yl)-2,6-diazaspiro[3.5]nonan-6-yl)-1H-pyrazol-3-yl)benzoate], it took 24.3 µM to reach half-maximal inhibition (IC50).

The molecule `Cc1cc(NCC(F)CNc2nc(-c3cc(Cl)cc(Cl)c3)no2)ccn1` (stereo not shown) [Compound 43] showed an IC50 of 13.3 µM.

As for `Cc1cc(NC(C)C2CCN(c3nc(-c4cc(Cl)cc(Cl)c4)no3)C2)ccn1` (stereo not shown) [Compound 222], the IC50 was 13.8 µM.

Consider `Cc1cc(N2CC3CN(c4nc(-c5cc(Cl)cc(Cl)c5)no4)CC3C2)ccn1` (stereo not shown) [Compound 45], for which the IC50 was 0.34 µM.

As for `Cc1cc(N2CCC(F)(CNc3nc(-c4cc(Cl)cc(Cl)c4)no3)CC2)ccn1` [Compound 8], half-maximal inhibition (IC50) required 0.804 µM.

Molecule `Cc1cc(N2CC3(CCCN(c4cc(-c5ccc(F)c(C(F)(F)F)c5)n[nH]4)C3)C2)ccn1` [Compound 135, 6-(3-(4-fluoro-3-(trifluoromethyl)phenyl)-1H-pyrazol-5-yl)-2-(2-methylpyridin-4-yl)-2,6-diazaspiro[3.5]nonane] came in with an IC50 of 21.1 µM.

`CNCc1cc(OC)cc(-c2noc(N3CCN(C)C4(CCN(c5ccnc(C)c5)CC4)C3)n2)c1` [Compound 245, 1-(3-methoxy-5-(5-(1-methyl-9-(2-methylpyridin-4-yl)-1,4,9-triazaspiro[5.5]undecan-4-yl)-1,2,4-oxadiazol-3-yl)phenyl)-N-methylmethanamine, HCl] registered an IC50 of 0.083 µM.

As for `Cc1cc(N2CC3(CCCN(c4nc(-c5ccc(Cl)cc5)no4)C3)C2)ccn1` [Compound 144], 42.3 µM corresponded to half-maximal inhibition (IC50).

`CC(C)c1cc(N2CC3(CCCN(c4nc(-c5cc(Cl)cc(Cl)c5)no4)C3)C2)ccn1` [Compound 206] returned an IC50 of 1.6 µM.

In the case of `Cc1cc(NC2CC3(CCN(c4nc(-c5cc(Cl)cc(Cl)c5)no4)C3)C2)ccn1` (stereo not shown) [Compound 154, 6-(3-(3,5-dichlorophenyl)-1,2,4-oxadiazol-5-yl)-N-(2-methylpyridin-4-yl)-6-azaspiro[3.4]octan-2-amine], it took 3.45 µM to reach half-maximal inhibition (IC50).

In turn, `Cc1cc(N2CCC3(CCN(c4nc(-c5cc(Cl)cc(Cl)c5)no4)C3)C2)ccn1` (stereo not shown) [Compound 4] had an IC50 of 0.36 µM.

Molecule `COc1cccc(-c2noc(N3CCC(CCNc4ccnc(C)c4)C3)n2)c1` (stereo not shown) [Compound 171] gave an IC50 of 4 µM.

As to `Cc1cc(NC(C)C2CCN(c3nc(-c4cc(Cl)cc(Cl)c4)no3)C2)ccn1` (stereo not shown) [Compound 227], the IC50 turned out to be 35.5 µM.

For `Cc1cc(N2CC3C(C2)C3Nc2nc(-c3cc(Cl)cc(Cl)c3)no2)ccn1` (stereo not shown) [Compound 228], 34.3 µM corresponded to half-maximal inhibition (IC50).

For the molecule `COc1cc(OC)cc(-c2noc(N3CCCC4(CCN(c5cc(C)nc(F)c5)CC4)C3)n2)c1` [Compound 188], half-maximal inhibition (IC50) required 45 µM.

As for `Cc1cc(NCCCN(C)c2nc(-c3cc(Cl)cc(Cl)c3)no2)ccn1` [Compound 16], half-maximal inhibition (IC50) was put at 11.5 µM.

`COC(=O)c1cccc(-c2cc(N3CCCC4(CN(c5ccnc(C)c5)C4)C3)on2)c1` [Compound 129, methyl 3-(5-(2-(2-methylpyridin-4-yl)-2,6-diazaspiro[3.5]nonan-6-yl)isoxazol-3-yl)benzoate] returned an IC50 of 19.1 µM.

Take `COc1cc(OC)cc(-c2noc(N3CCN(C)C4(CCN(c5ccnc(C)c5)CC4)C3)n2)c1` [Compound 161]: the midpoint of inhibition, the IC50, lay at 0.049 µM.

`COc1ccccc1-c1c(-c2cc(Cl)cc(Cl)c2)noc1N1CCCC2(CN(c3ccnc(C)c3)C2)C1` [Compound 124] had an IC50 of 17.6 µM.

With `Cc1cc(NCC23CC2CN(c2nc(-c4cc(Cl)cc(Cl)c4)no2)C3)ccn1` (stereo not shown) [Compound 168], the IC50 was found to be 9 µM.

Consider `Cc1cc(N2CCN(c3nc(-c4cc(Cl)cc(Cl)c4)no3)CC2)ccn1` [Compound 79], for which half-maximal inhibition (IC50) was put at 19.1 µM.

Regarding `COc1cc(OC)cc(-c2noc(N3CCN(c4ccccc4)C4(CCN(c5ccnc(C)c5)CC4)C3)n2)c1` [Compound 100], 0.14 µM corresponded to half-maximal inhibition (IC50).

For the molecule `Cc1cc(N2CC3(CCCN(c4nc(-c5cc(Cl)cc(Cl)c5)co4)C3)C2)ccn1` [Compound 118], the IC50 turned out to be 16.6 µM.

`CCN1CCN(c2noc(-c3cc(OC)cc(OC)c3)n2)CC12CCN(c1ccnc(C)c1)CC2` [Compound 89]: the IC50 turned out to be 0.08 µM.

As for `Cc1cc(NCCC2CN(c3nc(-c4cc(Cl)cc(Cl)c4)no3)CCO2)ccn1` (stereo not shown) [Compound 170], the IC50 was 0.4 µM.

`COc1cc(CN(C)C)cc(-c2noc(N3CCN(C)C4(CCN(c5ccnc(C)c5)CC4)C3)n2)c1` [Compound 244, 1-(3-methoxy-5-(5-(1-methyl-9-(2-methylpyridin-4-yl)-1,4,9-triazaspiro[5.5]undecan-4-yl)-1,2,4-oxadiazol-3-yl)phenyl)-N,N-dimethylmethanamine] showed an IC50 of 0.131 µM.

In the case of `Cc1cc(N2CC3(CCCN(c4onc(-c5cc(Cl)cc(Cl)c5)c4Br)C3)C2)ccn1` [Compound 121, 4-bromo-3-(3,5-dichlorophenyl)-5-(2-(2-methylpyridin-4-yl)-2,6-diazaspiro[3.5]nonan-6-yl)isoxazole], the concentration for half-maximal inhibition (IC50) was 13.7 µM.

As to `Cc1cc(N2CCC(N(c3nc(-c4cc(Cl)cc(Cl)c4)no3)C3CC3)CC2)ccn1` [Compound 51], it took 7.29 µM to reach half-maximal inhibition (IC50).
